The target in data set [1] is alpha-glucosidase (Saccharomyces cerevisiae). Description: Inhibition of alpha-glucosidase (Saccharomyces cerevisiae) using p-nitrophenyl glucopyranoside as substrate preincubated for 10 mins followed by substrate addition measured after 30 mins by plate reader analysis.
The nature of data set [2]: Cytotoxicity against mouse 3T3L1 cells assessed as cell viability at 1 to 20 ug/ml after 48 hrs by MTT assay. Type of data set: cell-based. The note with it: 3t3-l1, 48 h. (In general: Tetrazolium dyes change colour on reduction, which living cells bring about.)
Data set [3] can be described thus: Cytotoxicity against Wistar rat CC1 cells assessed as cell viability at 1 to 20 ug/ml after 48 hrs by MTT assay. In kind it is cell-based. The note with it: cc-1, 48 h.
Data set [4] concerns alpha-glucosidase (Saccharomyces cerevisiae). Description: Potency index, ratio of acarbose IC50 to compound IC50 for alpha glucosidase (Saccharomyces cerevisiae).

The IC50 is the concentration needed to halve the response being measured. Low readings indicate higher potency, high ones lower potency. `Cc1ccccc1/C=N/NC(=O)c1ccc(-c2nnc(-c3ccc4ncccc4c3)o2)cc1` returned a 50% inhibitory concentration (IC50) in data set [1] of 80.1 µM. The Activity result in data set [2] and in data set [3] was “Non-toxic” each time.
As for `O=C(N/N=C/c1ccccc1Cl)c1ccc(-c2nnc(-c3ccc4ncccc4c3)o2)cc1`, the IC50 in data set [1] worked out at 4.16 µM. Besides, the Activity result in data set [2] and in data set [3] was “Non-toxic” each time.
On to `O=C(N/N=C/c1cc(O)c(O)cc1O)c1ccc(-c2nnc(-c3ccc4ncccc4c3)o2)cc1`, for which the IC50 in data set [1] is 2.6 µM. The Activity entry in data set [2] and in data set [3] was “Non-toxic” throughout. In addition, the Ratio IC50 in data set [4] was above 14.
Regarding `O=C(N/N=C/c1cccc(Cl)c1)c1ccc(-c2nnc(-c3ccc4ncccc4c3)o2)cc1`, the IC50 in data set [1] turned out to be 30.2 µM. For the same compound, the Activity entry in data set [2] and in data set [3] was “Non-toxic” throughout.
Compound `O=C(N/N=C/c1ccccc1O)c1ccc(-c2nnc(-c3ccc4ncccc4c3)o2)cc1` came in with an IC50 in data set [1] of 2.86 µM. Moreover, the Activity entry in data set [2] and in data set [3] was “Non-toxic” each time. The Ratio IC50 in data set [4] is above 14.
In general, inhibition refers to the relative decrease from the control value, in per cent. Read a high inhibition as a strong effect. With `O=C(N/N=C/c1ccncc1)c1ccc(-c2nnc(-c3ccc4ncccc4c3)o2)cc1`, the inhibition in data set [1] was below 50%. Moreover, the Activity result in data set [2] and in data set [3] was “Non-toxic” throughout.
In turn, `O=C(N/N=C/c1cccc([N+](=O)[O-])c1)c1ccc(-c2nnc(-c3ccc4ncccc4c3)o2)cc1` displayed an IC50 in data set [1] of 36.5 µM. The Activity entry in data set [2] and in data set [3] was “Non-toxic” each time.
Take `O=C(N/N=C/c1cccc(O)c1O)c1ccc(-c2nnc(-c3ccc4ncccc4c3)o2)cc1`: half-maximal inhibition in data set [1] (IC50) was put at 6.8 µM. Besides, the Activity entry in data set [2] and in data set [3] was “Non-toxic” each time.
For the compound `O=C(N/N=C/c1ccc(Cl)cc1)c1ccc(-c2nnc(-c3ccc4ncccc4c3)o2)cc1`, the midpoint of inhibition in data set [1], the IC50, lay at 3.9 µM. In addition, the Activity entry in data set [2] and in data set [3] was “Non-toxic” throughout.
In data set [1], `COc1ccc(O)c(/C=N/NC(=O)c2ccc(-c3nnc(-c4ccc5ncccc5c4)o3)cc2)c1` gave an IC50 of 6.2 µM. Besides, the Activity result in data set [2] and in data set [3] was “Non-toxic” in each case.
As for `O=C(N/N=C/c1cc(O)cc(O)c1)c1ccc(-c2nnc(-c3ccc4ncccc4c3)o2)cc1`, the IC50 in data set [1] worked out at 37.1 µM. For the same compound, the Activity result in data set [2] and in data set [3] was “Non-toxic” each time.
In data set [1], `Cc1ccc(/C=N/NC(=O)c2ccc(-c3nnc(-c4ccc5ncccc5c4)o3)cc2)cc1` returned an IC50 of 102 µM. Further, the Activity result in data set [2] and in data set [3] was “Non-toxic” in each case.
Turning to `O=C(N/N=C/c1ccc([N+](=O)[O-])cc1)c1ccc(-c2nnc(-c3ccc4ncccc4c3)o2)cc1`, in data set [1], the IC50 is 63.5 µM. Besides, the Activity result in data set [2] and in data set [3] was “Non-toxic” throughout.
The compound `O=C(N/N=C/c1ccc(O)cc1)c1ccc(-c2nnc(-c3ccc4ncccc4c3)o2)cc1` gave an IC50 in data set [1] of 27.2 µM. Moreover, the Activity entry in data set [2] and in data set [3] was “Non-toxic” each time.
`O=C(N/N=C/c1cc(O)ccc1O)c1ccc(-c2nnc(-c3ccc4ncccc4c3)o2)cc1` displayed an IC50 in data set [1] of 8.5 µM. For the same compound, the Activity result in data set [2] and in data set [3] was “Non-toxic” in each case.
For `O=C(N/N=C/c1c(O)cc(O)cc1O)c1ccc(-c2nnc(-c3ccc4ncccc4c3)o2)cc1`, in data set [1], the IC50 amounted to 8.12 µM. Besides, the Activity entry in data set [2] and in data set [3] was “Non-toxic” each time.
In data set [1], `O=C(N/N=C/c1cccnc1)c1ccc(-c2nnc(-c3ccc4ncccc4c3)o2)cc1` returned an inhibition below 50%. The Activity entry in data set [2] and in data set [3] was “Non-toxic” in each case.
In the case of `COc1ccc(/C=N/NC(=O)c2ccc(-c3nnc(-c4ccc5ncccc5c4)o3)cc2)c(O)c1`, 9.2 µM corresponded to half-maximal inhibition in data set [1] (IC50). The Activity entry in data set [2] and in data set [3] was “Non-toxic” in each case.
Compound `COc1ccc(/C=N/NC(=O)c2ccc(-c3nnc(-c4ccc5ncccc5c4)o3)cc2)cc1O` displayed an IC50 in data set [1] of 21.2 µM. The Activity entry in data set [2] and in data set [3] was “Non-toxic” each time.
Turning to `O=C(N/N=C/c1cccc(O)c1)c1ccc(-c2nnc(-c3ccc4ncccc4c3)o2)cc1`, the IC50 in data set [1] turned out to be 39.2 µM. The Activity result in data set [2] and in data set [3] was “Non-toxic” throughout.
The compound `O=C(N/N=C/c1ccc(O)cc1O)c1ccc(-c2nnc(-c3ccc4ncccc4c3)o2)cc1` registered an IC50 in data set [1] of 8.45 µM. Moreover, the Activity entry in data set [2] and in data set [3] was “Non-toxic” throughout.
`Cc1cccc(/C=N/NC(=O)c2ccc(-c3nnc(-c4ccc5ncccc5c4)o3)cc2)c1`: the IC50 in data set [1] was 100 µM. For the same compound, the Activity result in data set [2] and in data set [3] was “Non-toxic” each time.
Consider `O=C(N/N=C/c1ccccc1[N+](=O)[O-])c1ccc(-c2nnc(-c3ccc4ncccc4c3)o2)cc1`, for which the IC50 in data set [1] was found to be 15.2 µM. Further, the Activity entry in data set [2] and in data set [3] was “Non-toxic” each time.
`O=C(N/N=C/c1ccc(O)c(O)c1)c1ccc(-c2nnc(-c3ccc4ncccc4c3)o2)cc1` showed an IC50 in data set [1] of 2.6 µM. Besides, the Activity entry in data set [2] and in data set [3] was “Non-toxic” each time. Moreover, the Ratio IC50 in data set [4] was above 14.
For the compound `O=C(N/N=C/c1ccccn1)c1ccc(-c2nnc(-c3ccc4ncccc4c3)o2)cc1`, the IC50 in data set [1] amounted to 40.5 µM. The Activity result in data set [2] and in data set [3] was “Non-toxic” throughout.

The values above are taken from ChEMBL document CHEMBL3751662, “Novel quinoline derivatives as potent in vitro -glucosidase inhibitors: in silico studies and SAR predictions” (Medchemcomm, 2015).
